Results from PMC9408872, “Harmicens, Novel Harmine and Ferrocene Hybrids: Design, Synthesis and Biological Activity” (International Journal of Molecular Sciences, 2022).

Columns and labels:
[1] = tested on: SW620 (colorectal adenocarcinoma); assay: MTT cytotoxicity assay, SW620; format: cell-based, human; conditions: 72 h, MTT; mean ± SD; read-out: IC50 SW620
Experimental: (§1) The parent compound harmine, as well as the reference drug 5-fluorouracil, were used as positive controls.
(§2) The experiments were carried out on five human cell lines purchased from American Type Culture Collection (ATCC): HepG2 (hepatocellular carcinoma; ATCC® HB-8065™), SW620 (colorectal adenocarcinoma; ATCC® CCL-227™), HCT116 (colorectal carcinoma; ATCC® CCL-247™), MCF-7 (breast adenocarcinoma; ATCC® HTB-22™), and Hek293T (embryonic kidney cells; ATCC® CRL-3216™). All cell lines were cultured as monolayers and maintained in Dulbecco’s Modified Eagle Medium (DMEM) (Capricorn Scientific, Ebsdorfergrund, Germany) supplemented with 10% fetal bovine serum (FBS) (Capricorn Scientific, Ebsdorfergrund, Germany), 100 U/mL penicillin, and 100 µg/mL streptomycin (Capricorn Scientific, Ebsdorfergrund, Germany) in a humidified atmosphere with 5% CO2 at 37 °C. Cells were seeded in 96-well plates (Corning, Durham, NC, USA) at 5000–7000 cells per well (depending on the cell-doubling time of a specific cell line) in 0.1 mL media and cultured for 24 h. The next day, the medium was aspirated, and cells were treated for 72 h. Only the compounds that led to more than a 50% reduction in mitochondrial metabolic activity at a concentration of 50 µM were selected for further analysis. The following concentrations of selected compounds were used: 25, 10, 5, and 1 µM. Working dilutions were freshly prepared on the day of the testing. A fresh growth medium was added to untreated control cells, which were defined as 100% viable. DMSO (0.13%) in DMEM was considered a negative control. 5-Fluorouracil (5-FU) and harmine were used as positive controls. At the end of treatment, the medium was removed, and cells were incubated for 1 h with 0.5 mg/mL MTT (Abcam, Cambridge, MA, USA) dissolved in serum-deprived DMEM. The MTT-containing medium was then removed, and 0.1 mL isopropanol was added per well to lyse cells and dissolve formazan. The optical density was measured at 570 nm using a microplate reader (VICTOR3, PerkinElmer, Waltham, MA, USA). Each test point was performed in triplicate. The absorbance was directly proportional to the cell viability. The IC50 values (concentration required to decrease viability by 50%) were calculated by using nonlinear regression on the sigmoidal dose–response plots and are expressed as mean ± SD.

[2] = tested on: HCT116 (colorectal carcinoma); assay: MTT cytotoxicity assay, HCT116; format: cell-based, human; conditions: for IC50: 72 h, MTT, mean ± SD, read-out: IC50 HCT116; for SI (HCT116): selectivity index: ratio of IC50 Hek293T to IC50 HCT116
Experimental: as §1, §2

[3] = tested on: P. falciparum 3D7 (CQ-sensitive) erythrocytic stages; assay: In vitro drug sensitivity assay (HRP2-ELISA) against erythrocytic stages, Pf3D7; format: cell-based; conditions: for IC50: read-out: IC50 Pf3D7
Experimental: (§3) The in vitro activity of harmicens 20–37 against the erythrocytic stages of CQ-sensitive (Pf3D7) and multidrug-resistant (PfDd2) P. falciparum strains was evaluated following a previously described method (Table 1).
(§4) The antiplasmodial activity of harmicens 20–37 was evaluated against two strains of P. falciparum (3D7—CQ-sensitive, Dd2—multidrug-resistant) as previously described using the histidine-rich protein 2 (HRP2) assay. Briefly, 96-well plates were pre-coated with the tested compounds in a three-fold dilution before ring-stage parasites were added to complete the culture medium at a hematocrit of 1.5% and parasitemia of 0.05%. After three days of incubation at 37 °C, 5% CO2, and 5% oxygen, plates were frozen until HRP2-ELISA analysis. All compounds were evaluated in duplicate in at least two independent experiments. The IC50 was determined using a nonlinear regression analysis of log concentration–response curves using the drc-package v0.9.0 of R v2.6.1 (R Foundation, Vienna, Austria).

[4] = tested on: MCF-7 (breast adenocarcinoma); assay: cells; conditions: for IC50: read-out: IC50 MCF-7, 72 h, MTT, mean ± SD; for SI (MCF-7): selectivity index: ratio of IC50 Hek293T to IC50 MCF-7
Experimental: as §1, §2

HCT116 cells = assay: Cell cycle analysis (propidium iodide, flow cytometry); format: cell-based, human; conditions: 3 µM and 6 µM
Experimental: To that end, the cells were treated for 24 and 48 h with 3 µM and 6 µM concentrations of each compound, which corresponded to 0.5 × IC50 and IC50 values obtained in the MTT assay after 72 h, respectively. Afterward, the DNA was stained with propidium iodide and subjected to flow cytometry analysis.
HCT116 cells were seeded onto 6-well plates (2 × 10^5 cells per well). After 24 h, the tested compounds 28 and 36 were added at two concentrations—3 µM and 6 µM. After 24 h and 48 h, the attached cells were trypsinized, combined with floating cells, washed with phosphate buffer saline (PBS), fixed with 70% ethanol, and stored at −20 °C. Immediately before analysis, the cells were washed two times with PBS, treated with 0.1 μg/μL of RNAse A, and stained for 1 h on ice with 50 μg/mL of propidium iodide. The stained cells were then analyzed using a BD FACScalibur flow cytometer (20,000 counts were measured). The percentage of cells in each cell cycle phase was determined using FlowJo software (TreeStar Inc., San Francisco, CA, USA). The tests were performed in duplicate and repeated in two separate experiments. The average values from duplicates from one representative experiment ± SD are presented.

[5] = tested on: Hek293T (embryonic kidney cells); assay: MTT cytotoxicity assay, Hek293T; format: cell-based, human; conditions: noncancer cell line; 72 h, MTT; mean ± SD; read-out: IC50 Hek293T
Experimental: as §1, §2

[6] = tested on: HepG2 (hepatocellular carcinoma); assay: MTT cytotoxicity assay, HepG2; format: cell-based, human; conditions: 72 h, MTT; mean ± SD; read-out: IC50 HepG2
Experimental: as §1, §2

[7] = tested on: P. falciparum Dd2 (multidrug-resistant) erythrocytic stages; assay: In vitro drug sensitivity assay (HRP2-ELISA) against erythrocytic stages, PfDd2; format: cell-based; conditions: multidrug-resistant strain; three days incubation; mean ± SD; read-out: IC50 PfDd2
Experimental: as §3, §4

[8] = CQ-sensitive strain, three days incubation, mean ± SD

| Structure (SMILES) | IC50 [3, 8] | IC50 [4] | IC50 [7] | IC50 [1] | IC50 [2] | SI (HCT116) [2] | decrease in antiplasmodial activity against Pf3D7 relative to harmicene 23 ([3]; 28 (methylene bridge) versus its counterpart 23) | IC50 Pf3D7 [3, 8] | SI (MCF-7) [4] | effect on cell cycle distribution after 24 h (HCT116 cells) | effect on cell cycle distribution after 48 h (HCT116 cells; 48 h) | IC50 [5] | IC50 [6] |
| --- | --- | --- | --- | --- | --- | --- | --- | --- | --- | --- | --- | --- | --- |
| COc1ccc2c3ccnc(C)c3n(CCn3cc(-[c-]4cccc4)nn3)c2c1.[Fe+2].c1cc[cH-]c1 [Compound 24, 7-Methoxy-1-methyl-9-(2-(4-ferrocenyl-1H-1,2,3-triazol-1-yl)ethyl)-9H-pyrido[3,4-b]indole] | 1350 ± 280 nM | > 50 µM | 2310 ± 290 nM | > 50 µM | > 50 µM | >1 | – | – | >1 | – | – | > 50 µM | > 50 µM |
| [Fe+2].c1cc[cH-]c1.c1ccc2c(c1)[nH]c1c(Cn3cc(-[c-]4cccc4)nn3)nccc12 [Compound 20, 1-((4-Ferrocenyl-1H-1,2,3-triazol-1-yl)methyl)-9H-pyrido[3,4-b]indole] | 9230 ± 1960 nM | 39.4 ± 7.9 µM | 11200 ± 2230 nM | > 50 µM | 29.4 ± 4.6 µM | >1.7 | – | – | >1.3 | – | – | > 50 µM | 43.9 ± 1.1 µM |

Continued, in another order:

| IC50 [3, 8] | IC50 [4] | IC50 [7] | Structure (SMILES) | IC50 [1] | IC50 [2] | SI (HCT116) [2] | decrease in antiplasmodial activity against Pf3D7 relative to harmicene 23 ([3]; 28 (methylene bridge) versus its counterpart 23) | IC50 Pf3D7 [3, 8] | SI (MCF-7) [4] | effect on cell cycle distribution after 24 h (HCT116 cells) | effect on cell cycle distribution after 48 h (HCT116 cells; 48 h) | IC50 [5] | IC50 [6] |
| --- | --- | --- | --- | --- | --- | --- | --- | --- | --- | --- | --- | --- | --- |
| > 56000 nM | > 50 µM | > 56000 nM | Cc1nccc2c1[nH]c1cc(OCc3cn(C[c-]4cccc4)nn3)ccc12.[Fe+2].c1cc[cH-]c1 [Compound 28, 7-((1-(Ferrocenylmethyl)-1H-1,2,3-triazol-4-yl)methoxy)-1-methyl-9H-pyrido[3,4-b]indole] | > 50 µM | 7.4 ± 0.4 µM | >6.8 | 370 fold | inactive at the highest concentration tested | >1 | statistically significant increase in cells in the G1 phase at both tested concentrations | pronounced G2/M cell cycle arrest | > 50 µM | > 50 µM |
| 420 ± 20 nM | 4.5 ± 0.3 µM | 1530 ± 60 nM | Cc1nccc2c1[nH]c1cc(OCCNC(=O)C[c-]3cccc3)ccc12.[Fe+2].c1cc[cH-]c1 [Compound 36, N-(2-((1-Methyl-9H-pyrido[3,4-b]indol-7-yl)oxy)ethyl)-2-ferrocenylacetamide] | 4.2 ± 0.3 µM | 5.9 ± 1.3 µM | 1.4 | – | – | 1.9 | G1 phase arrest only at a higher concentration | – | 8.4 ± 0.3 µM | 7.4 ± 0.5 µM |
| 1340 ± 90 nM | > 50 µM | 1110 ± 10 nM | O=C(C[c-]1cccc1)NCc1nccc2c1[nH]c1ccccc12.[Fe+2].c1cc[cH-]c1 [Compound 34, N-((9H-Pyrido[3,4-b]indol-1-yl)methyl)-2-ferrocenylacetamide] | > 50 µM | > 50 µM | >1 | – | – | >1 | – | – | > 50 µM | > 50 µM |
| 300 ± 90 nM | 9.1 ± 1.4 µM | 660 ± 10 nM | Cc1nccc2c1[nH]c1cc(OCCNC(=O)[c-]3cccc3)ccc12.[Fe+2].c1cc[cH-]c1 [Compound 32, N-(2-((1-Methyl-9H-pyrido[3,4-b]indol-7-yl)oxy)ethyl)ferrocenecarboxamide] | 9.9 ± 4 µM | 6.6 ± 0.8 µM | 2.8 | – | – | 2 | – | – | 18.6 ± 0.2 µM | 15.6 ± 0.3 µM |
